In US6858393B1, “Chain terminators for DNA synthesis” (Stratagene California, priority 2002, dated 2005):

Tested on: DNA polymerase (JDF-3 P41OL/A485T)
Experiment: Assay for incorporation of chain terminators (primer extension, denaturing PAGE on ABI 377 sequencer)
Assay type: biochemical
Details: for terminator/dNTP ratio giving a similar pattern (signal strength and length): FIG. 8, ddATP lane 2, PME-App lane 3, dNTPs each at 50 μM, 25 cycles
Description: Reactions (20 μl) consisted of 0.5 pmol fluorescein-labeled primer pFI-20, 1 pmol pBluescript II, 5 U DNA polymerase (JDF-3 P41OL/A485T), all four dNTPs (each at 50 μM) and varying concentrations of only ddATP or PME-App in 20 mM Tris pH 8.8, 10 mM (NH4)2SO4, and 2 mM MgSO4. Reactions were incubated in a Perkin-Elmer 9600 for 25 cycles as follows: 95° C. for 30 s, 50° C. for 30 s and 72° C. for 4 min. The reactions were quenched with ice-cold 0.2 M EDTA (final concentration), dried, and the pellets dissolved in a 3:1 formamide: EDTA/blue dextran. Reactions were then analyzed by 6% denaturing PAGE on an ABI 377 sequencer.
The relative ratio can be determined more exactly by repeating the reactions over a narrower range of ratios.

SMILES	terminator/dNTP ratio giving a similar pattern (signal strength and length)	relative incorporation efficiency of ddATP versus PME-App (ddATP better than PME-App, from comparison of lane patterns in FIG. 8, all four dNTPs each at 50 μM) [fold]
Nc1ncnc2c1ncn2[C@H]1CC[C@@H](COP(=O)(O)OP(=O)(O)OP(=O)(O)O)O1 [ddATP]	1/10	2
Nc1ncnc2c1ncn2CCOCP(=O)(O)OP(=O)(O)OP(=O)(O)O [PME-App, PME-adenine diphosphate]	1/5	–
